Reference: ChEMBL document CHEMBL1933028, “Discovery of cyclic amine-substituted benzoic acids as PPARα agonists” (Bioorg Med Chem Lett, 2012)

Columns and labels:
Canis familiaris [1] = test: Antidyslipidemic activity in high-fat diet fed dog assessed as decrease in non-HDL cholesterol at 0.003 mg/kg, po administered QD for 1 week (reference value: 75 +/- 5 mg/dL); assay type: functional, Canis lupus familiaris
[2] = biological target: T1, Peroxisome proliferator-activated receptor delta (Canis lupus familiaris, UniProt Q0ZAQ8); test: Agonist activity at dog PPARdelta; assay type: functional
T1 sequence (Q0ZAQ8 whole entry): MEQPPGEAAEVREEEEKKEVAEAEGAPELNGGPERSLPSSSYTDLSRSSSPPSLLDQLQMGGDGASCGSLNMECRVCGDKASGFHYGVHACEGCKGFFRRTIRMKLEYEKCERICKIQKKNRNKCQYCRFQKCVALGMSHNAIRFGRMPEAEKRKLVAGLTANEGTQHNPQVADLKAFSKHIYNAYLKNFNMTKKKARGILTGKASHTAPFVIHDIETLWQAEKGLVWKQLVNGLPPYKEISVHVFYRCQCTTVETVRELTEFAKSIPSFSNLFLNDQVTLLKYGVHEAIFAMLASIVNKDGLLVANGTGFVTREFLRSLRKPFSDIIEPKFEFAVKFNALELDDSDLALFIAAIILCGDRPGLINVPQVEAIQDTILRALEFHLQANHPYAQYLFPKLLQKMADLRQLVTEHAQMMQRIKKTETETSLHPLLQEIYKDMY

Canis familiaris [3] = test: Toxicity in high-fat diet fed dog assessed as change in body weight at 0.003 mg/kg, po administered QD for 1 week (reference value: 14.8 +/- 0.7 kg); assay type: organism-based, Canis lupus familiaris; set-up: dose 0.003 mg/kg, route oral; settings: in vivo, 168 h
Canis familiaris [4] = test: Antidyslipidemic activity in high-fat diet fed dog assessed as decrease in free fatty acid at 0.03 mg/kg, po administered QD for 1 week (reference value: 0.624 +/- 0.057 mEq/L); assay type: functional, Canis lupus familiaris
Canis familiaris [5] = test: Antidyslipidemic activity in high-fat diet fed dog assessed as decrease in serum triglyceride level at 0.03 mg/kg, po administered QD for 1 week (reference value: 98 +/- 4 mg/dL); assay type: functional, Canis lupus familiaris
Canis familiaris [6] = test: Antidyslipidemic activity in high-fat diet fed dog assessed as decrease in total cholesterol at 0.03 mg/kg, po administered QD for 1 week (reference value: 205 +/- 6 mg/dL); assay type: functional, Canis lupus familiaris
[7] = Cmax in rat at 1 mg/kg, po; assay type: ADME, organism-based; set-up: dose 1 mg/kg, route oral; settings: in vivo
[8] = Cmax in dog at 0.3 mg/kg, po; assay type: ADME, organism-based, Canis lupus familiaris; set-up: dose 0.3 mg/kg, route oral; settings: in vivo
Rattus norvegicus = test: Volume of distribution at steady state in rat at 1 mg/kg, po; assay type: ADME, organism-based; set-up: dose 1 mg/kg, route oral; settings: in vivo
[9] = biological target: T2, Peroxisome proliferator-activated receptor alpha (Homo sapiens, UniProt Q07869); test: Transactivation of human PPARalpha expressed in CHO-K1 cells; assay type: cell-based
T2 sequence (Q07869 whole entry): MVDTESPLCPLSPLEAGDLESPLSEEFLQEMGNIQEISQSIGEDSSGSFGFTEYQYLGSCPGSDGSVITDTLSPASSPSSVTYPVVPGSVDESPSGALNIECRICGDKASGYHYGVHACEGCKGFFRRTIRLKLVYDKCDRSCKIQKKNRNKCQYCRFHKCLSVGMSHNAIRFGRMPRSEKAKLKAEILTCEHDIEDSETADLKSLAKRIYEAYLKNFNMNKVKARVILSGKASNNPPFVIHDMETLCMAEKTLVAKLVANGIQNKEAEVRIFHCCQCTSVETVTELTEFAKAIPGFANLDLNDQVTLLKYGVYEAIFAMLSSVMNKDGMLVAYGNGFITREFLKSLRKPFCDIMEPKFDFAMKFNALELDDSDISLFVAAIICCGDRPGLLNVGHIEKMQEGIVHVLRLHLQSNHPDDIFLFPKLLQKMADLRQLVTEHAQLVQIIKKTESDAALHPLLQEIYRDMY

Canis familiaris [10] = test: Antidyslipidemic activity in high-fat diet fed dog assessed as decrease in serum triglyceride level at 0.01 mg/kg, po administered QD for 1 week (reference value: 98 +/- 4 mg/dL); assay type: functional, Canis lupus familiaris
[11] = Agonist activity at hamster PPARdelta; assay type: functional, Cricetinae
[12] = Agonist activity at rat PPARdelta; assay type: functional
[13] = Oral bioavailability in rat at 1 mg/kg; assay type: ADME, organism-based; settings: in vivo
Canis familiaris [14] = test: Toxicity in high-fat diet fed dog assessed as effect on food intake at 0.003 mg/kg, po administered QD for 1 week (reference value: 3.67+/-0.09 kg); assay type: organism-based, Canis lupus familiaris; set-up: dose 0.003 mg/kg, route oral; settings: in vivo, 168 h
[15] = biological target: T3, Peroxisome proliferator-activated receptor delta (Homo sapiens, UniProt Q03181); test: Transactivation of human PPARdelta expressed in CHO-K1 cells; assay type: cell-based
T3 sequence (Q03181 whole entry): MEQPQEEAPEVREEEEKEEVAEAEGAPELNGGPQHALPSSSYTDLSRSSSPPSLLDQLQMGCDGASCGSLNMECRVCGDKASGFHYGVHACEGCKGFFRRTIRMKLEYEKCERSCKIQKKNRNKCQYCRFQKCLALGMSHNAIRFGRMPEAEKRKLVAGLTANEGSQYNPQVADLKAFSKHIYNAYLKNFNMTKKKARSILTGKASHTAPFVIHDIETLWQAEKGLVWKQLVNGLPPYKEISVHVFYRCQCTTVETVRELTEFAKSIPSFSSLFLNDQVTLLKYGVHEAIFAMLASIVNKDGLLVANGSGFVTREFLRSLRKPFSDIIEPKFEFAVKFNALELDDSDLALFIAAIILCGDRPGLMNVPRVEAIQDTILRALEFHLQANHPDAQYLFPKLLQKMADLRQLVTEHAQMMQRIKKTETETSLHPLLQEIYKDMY

Canis familiaris [16] = test: Antidyslipidemic activity in high-fat diet fed dog assessed as decrease in total cholesterol at 0.003 mg/kg, po administered QD for 1 week (reference value: 205 +/- 6 mg/dL); assay type: functional, Canis lupus familiaris
Canis familiaris [17] = test: Volume of distribution at steady state in dog at 0.3 mg/kg, po; assay type: ADME, organism-based, Canis lupus familiaris; set-up: dose 0.3 mg/kg, route oral; settings: in vivo
Canis familiaris [18] = test: Toxicity in high-fat diet fed dog assessed as change in body weight at 0.01 mg/kg, po administered QD for 1 week (reference value: 14.8 +/- 0.7 kg); assay type: organism-based, Canis lupus familiaris; set-up: dose 0.01 mg/kg, route oral; settings: in vivo, 168 h
Canis familiaris [19] = test: Antidyslipidemic activity in high-fat diet fed dog assessed as decrease in free fatty acid at 0.003 mg/kg, po administered QD for 1 week (reference value: 0.624 +/- 0.057 mEq/L); assay type: functional, Canis lupus familiaris
Canis familiaris [20] = test: Antidyslipidemic activity in high-fat diet fed dog assessed as decrease in total cholesterol at 0.01 mg/kg, po administered QD for 1 week (reference value: 205 +/- 6 mg/dL); assay type: functional, Canis lupus familiaris
Canis familiaris [21] = test: Antidyslipidemic activity in high-fat diet fed dog assessed as decrease in non-HDL cholesterol at 0.01 mg/kg, po administered QD for 1 week (reference value: 75 +/- 5 mg/dL); assay type: functional, Canis lupus familiaris
[22] = Agonist activity at hamster PPARgamma; assay type: functional, Cricetinae
[23] = Half life in dog at 0.3 mg/kg, po; assay type: ADME, organism-based, Canis lupus familiaris; set-up: dose 0.3 mg/kg, route oral; settings: in vivo
Canis familiaris [24] = test: Antidyslipidemic activity in high-fat diet fed dog assessed as decrease in free fatty acid at 0.01 mg/kg, po administered QD for 1 week (reference value: 0.624 +/- 0.057 mEq/L); assay type: functional, Canis lupus familiaris

EC50 [2]: 2.7 µM
Cmax [7]: 316 ng/mL
Cmax [8]: 295 ng/mL
Vdss (Rattus norvegicus): 0.832 L/kg
EC50 [9]: 0.008 µM
EC50 [11]: > 7.1 µM
EC50 [12]: > 14 µM
bioavailability [13]: 47.6%
EC50 [15]: 3 µM
Vdss (Canis familiaris [17]): 1.66 L/kg
EC50 [22]: > 15 µM
half-life [23]: 74 h
Compound: Cc1nc(-c2ccc(Cl)cc2)sc1C(=O)N[C@H]1CCCN(c2cccc(C(=O)O)c2)C1
Activity (Canis familiaris [1]): 65 mg/dL
Activity (Canis familiaris [3]): 15.3 kg
Activity (Canis familiaris [4]): 0.576 mEq/L
Activity (Canis familiaris [5]): 44 mg/dL
Activity (Canis familiaris [6]): 169 mg/dL
Activity (Canis familiaris [10]): 48 mg/dL
Activity (Canis familiaris [14]): 3.85 kg
Activity (Canis familiaris [16]): 190 mg/dL
Activity (Canis familiaris [18]): 14.8 kg
Activity (Canis familiaris [19]): 0.607 mEq/L
Activity (Canis familiaris [20]): 176 mg/dL
Activity (Canis familiaris [21]): 50 mg/dL
Activity (Canis familiaris [24]): 0.651 mEq/L
